Data: patent EP3246013A1, “INHIBITION OF THE ADHESION OF MICROORGANISMS PATHOGENATED BY A STEARATE AND/OR SORBITAN SUCROSE IN THE COSMETIC TREATMENT OF ATOPIC DERMATITIS” (priority 2012, dated 2014)

How the values were obtained:
Staphylococcus aureus = assay: In vitro inhibition of adhesion of S. aureus on a solid support (glass chamber slide), crystal violet staining and automatic counting; assay type: cell-based; conditions: for Nombre de cellules par champ: adhesion to glass slide, mean of three fields ± SD, water control 99 ± 11; for inhibition de l'adhésion (% par rapport au témoin eau): glass slide
Method: Le protocole suivant est mis en oeuvre : • Une préculture de S. aureus issue du laboratoire de bactériologie clinique de l'hôpital de la Timone (CIP 65-8) est réalisée dans du milieu 'Nutrient Broth N° 2' (Oxoid), pendant 12h, à 37°C; • La culture est centrifugée à 9 000 g, pendant 10 min et le culot bactérien est remis en suspension dans un tampon phosphate (PBS); • A partir de cette suspension, une dilution au 1/50 est réalisée dans une solution aqueuse ou une solution aqueuse contenant le composé polyhydroxylé à tester. Il s'agit soit du xylitol, soit du sucrostéarate HLB 16 (SURFHOPE™ C1816); • Les bactéries sont préincubées en présence du composé polyhydroxylé à tester pendant 45 min, à 37 °C; • Le mélange (100 µl) est ensuite déposé dans un puits d'une lame cytologique en verre, de surface fixe (0,8 cm^2) et délimitée par des parois, c'est-à-dire une lame adaptée à la culture cellulaire (Chamber Slide System, Labtek); • Les cultures bactériennes sont ensuite incubées à 37°C, pendant 60 min et ultérieurement rincées délicatement avec de l'eau ultra pure, ce qui permet d'éliminer les bactéries n'ayant pas adhéré à la surface du puits de la lame; • Les bactéries ayant adhéré dans chaque puits sont par la suite colorées par le cristal violet pendant 10 secondes, puis rincées et séchées pendant 12h, à 25°C; • Les bactéries sont enfin observées à l'aide d'un microscope optique, par grossissement x 1000, en immersion, les champs étant parfaitement homogènes; • Un comptage automatique des bactéries dans chaque puits est finalement réalisé à l'aide d'un logiciel approprié.
Selon ce protocole, l'effet des composés polyhydroxylés a été analysé pour l'activité d'inhibition de l'adhésion de S. aureus sur le support solide. Le xylitol à une concentration finale de 0,5% et le sucrostéarate HLB 16 (sucrose monostéarate, SURFHOPE C18-C16) à une concentration finale de 1% ont été testés. Tableau 1 : Effets du xylitol (0,5%) et du sucrostéarate HLB 16 (1%) sur l'adhésion de S. aureus à la surface des lames de verre. Les résultats correspondent à une moyenne du comptage de trois champs, qui est présentée avec l'écart type correspondant.

S. aureus = assay: Ex vivo inhibition of adhesion of S. aureus on human corneocytes (D-Squame discs), crystal violet staining and image counting; assay type: cell-based, Staphylococcus aureus; conditions: for Inhibition de l'adhésion de S. aureus (%) Essai 1 / Inhibition de l'adhésion de S. aureus (%) Essai 2: human corneocytes; for Inhibition de l'adhésion de S. aureus (%) Essai 1: trial 1; for Inhibition de l'adhésion de S. aureus (%) Essai 2: trial 2
Method: Afin de corroborer les résultats obtenus in vitro, un test d'adhésion ex vivo sur des cornéocytes humains a été mis au point d'après la méthode réalisée chez le chien (McEwan et al., 2005).
La souche clinique de S. aureus (CIP 65-8) a été prélevée sur un patient, au sein du laboratoire de bactériologie clinique de l'hôpital de la Timone à Marseille.
La souche de S. aureus est inoculée dans 10 ml de milieu 'Nutrient Broth N° 2' (Oxoid) et incubée sous agitation à 37°C pendant 12 heures. Les bactéries sont collectées par centrifugation et le culot bactérien est remis en suspension dans un tampon phosphate PBS. La population bactérienne est ajustée approximativement à 10^6 CFU/ml avec de l'eau osmosée.
Des zones cibles sont délimitées sur chaque bras d'un volontaire humain. Pour chaque zone, les débris cutanés sont éliminés grâce à 5 « pré-strippings » successifs avec des disques Sellotape™Original (diamètre 22 mm). Les cornéocytes sont ensuite collectés sur chaque zone cible à l'aide de disques adhésifs D-Squame™ (diamètre 22 mm) et d'un applicateur de disque D-Squame réglé à la pression de 150 g/cm^2.
Les disques sont ensuite placés dans des boîtes de Pétri, de diamètre 35 mm. Les disques sont alors recouverts par 0,5 ml d'eau ou 0,5 ml de la solution de S. aureus à 10^6 CFU/ml, contenant le composé polyhydroxylé à tester, à raison de trois zones pour chacun d'entre eux.
Les composés polyhydroxylés testés avec ce protocole expérimental sont : • le xylitol, à une concentration finale de 0,5%; • le sucrose stéarate HLB 16 (sucrose monostéarate, SURFHOPE C1816,), à une concentration finale de 1%, • le sucrose laurate monoester (SURFHOPE C1216), à une concentration finale de 0,1 %, • le polysorbate 60, à une concentration finale de 0,1%, • le polysorbate 60, à une concentration finale de 1%, • le polysorbate 20, à une concentration finale de 0,1%,
Toutes les solutions sont préparées dans de l'eau et mises en contact avec S. aureus à température ambiante 45 min avant le début de l'expérience d'adhésion. Les boites sont ensuite incubées à 37°C pendant 60 min. Les disques sont alors rincés avec de l'eau osmosée, ce qui permet d'éliminer les bactéries n'ayant pas adhéré aux cornéocytes. Les bactéries ayant adhéré aux cornéocytes humains sont alors colorées par du cristal violet oxalaté pendant 10 secondes. Les disques sont enfin rincés avec de l'eau osmosée, placés sur une lame de microscope et séchés à l'air libre pendant 24 h.
Les images des bactéries adhérentes sont acquises à l'aide d'un microscope Olympus BX 53 couplé à une caméra numérique. Les images collectées sont ensuite analysées par le logiciel UTHSCSA Image Tool (Reindeer Graphics Inc.). Le nombre de bactéries par disque est calculé par une moyenne arithmétique de 10 à 12 images, ce qui correspond à la surface d'environ 100 cornéocytes. Les comparaisons entre différentes moyennes sont effectuées avec le logiciel Statgraphics Plus (Manugistics Inc.).

Compound: OC[C@@H](O)[C@H](O)[C@@H](O)CO [Xylitol, xylitol, reference compound]
- Nombre de cellules par champ (Staphylococcus aureus; final concentration 0,5%): 91 ± 6
- inhibition de l'adhésion (% par rapport au témoin eau) (Staphylococcus aureus; final concentration 0,5%): 8%
- effet inhibiteur sur l'adhésion de S. aureus sur les cornéocytes (S. aureus; final concentration 0,5%): ~20%
- Inhibition de l'adhésion de S. aureus (%) Essai 1 (S. aureus; final concentration 0,5%): 21,0%
- Inhibition de l'adhésion de S. aureus (%) Essai 2 (S. aureus; final concentration 0,5%): 20,2%

Compound: monolaurate de sorbitan ethoxylé [Polysorbate 20]
- effet sur l'adhésion de S. aureus sur les cornéocytes (S. aureus; final concentration 0,1%): résultats très satisfaisants
- Inhibition de l'adhésion de S. aureus (%) Essai 1 (S. aureus; final concentration 0,1%): 57%

Compound: monostéarate de sorbitan polyoxyethylène 20 [Polysorbate 60]
- effet sur l'adhésion de S. aureus sur les cornéocytes (S. aureus; final concentration 0,1%): résultats très satisfaisants
- Inhibition de l'adhésion de S. aureus (%) Essai 1 (S. aureus; final concentration 0,1%): 39,8%
- activité inhibitrice (adhésion de S. aureus sur les cornéocytes) (S. aureus; final concentration 1%): ≥ 50%
- Inhibition de l'adhésion de S. aureus (%) Essai 1 (S. aureus; final concentration 1%): 54%

Compound: sucrose laurate monoester [reference compound]
- effet sur l'adhésion de S. aureus sur les cornéocytes (S. aureus; final concentration 0,1%): augmentation significative de l'adhésion
- Inhibition de l'adhésion de S. aureus (%) Essai 1 (S. aureus; final concentration 0,1%): -22.8%

Compound: sucrose monostéarate [Sucrostéarate HLB 16]
- Nombre de cellules par champ (Staphylococcus aureus; final concentration 1%): 12 ± 1
- inhibition de l'adhésion (% par rapport au témoin eau) (Staphylococcus aureus; final concentration 1%): 88%
- inhibition de l'adhésion de S. aureus à la surface des lames de verre (Staphylococcus aureus; text conclusion in words, 1%): forte inhibition
- activité inhibitrice (adhésion de S. aureus sur les cornéocytes) (S. aureus; final concentration 1%): ≥ 50%
- Inhibition de l'adhésion de S. aureus (%) Essai 1 (S. aureus; final concentration 1%): 57,0%
- Inhibition de l'adhésion de S. aureus (%) Essai 2 (S. aureus; final concentration 1%): 49,6%
